# Earlier results, collected in EP3811932A1, “DOSAGE FORM OF APALUTAMIDE” (Zentiva K.S., priority 2019, dated 2021).
# Settings: over a wide range of pH values
compound,measurement,value
"CNC(=O)c1ccc(N2C(=S)N(c3cnc(C#N)c(C(F)(F)F)c3)C(=O)C23CCC3)cc1F [Apalutamide, 4-[7-[6-cyano-5-(trifluoromethyl)pyridin-3-yl]-8-oxo-6-thioxo-5,7-diazaspiro[3.4]octan-5-yl]-2-fluoro-N-methylbenzamide]",solubility in aqueous media,practically insoluble
